{"source": "paper PMC6349922", "assay": "RCM stapling (C=C formation) of two bridgehead alkenyl ether chains of 7-azabicyclo[2.2.1]heptane amide dimers; Grubbs I, 5-7 mol% (about 2.5-3 mol% for 36), added dropwise over 10-15 min, reflux under Ar", "conditions": "CH2Cl2, 1.0 mM, 40.0 °C"}
{"smiles": "CC(C)(C)OC(=O)N1[C@H]2CC[C@@]13COCCCCCC=CCCCCCOCC14CCC(CC1)N4C(=O)[C@H]2C3", "note": "[5 -> 10 (C12)]", "values": [{"measurement": "ring closure, isolated yield", "setting": "from C=CCCCCCOCC12CCC(CC1)N2C(=O)[C@H]1C[C@@]2(COCCCCCC=C)CC[C@@H]1N2C(=O)OC(C)(C)C, 22-membered ring, 16.0 h", "result": 64, "unit": "%"}]}
{"smiles": "CC(C)(C)OC(=O)N1[C@H]2CC[C@@]13COCCCCC=CCCCCOCC14CCC(CC1)N4C(=O)[C@H]2C3", "note": "[3 -> 8 (C10)]", "values": [{"measurement": "ring closure, isolated yield", "setting": "from C=CCCCCOCC12CCC(CC1)N2C(=O)[C@H]1C[C@@]2(COCCCCC=C)CC[C@@H]1N2C(=O)OC(C)(C)C, 20-membered ring, 3.0 h", "result": 94, "unit": "%"}]}
{"smiles": "CC(C)(C)OC(=O)N1[C@H]2CC[C@@]13COCCCC=CCCCOCC14CCC(CC1)N4C(=O)[C@H]2C3", "note": "[1 -> 6 (C8)]", "values": [{"measurement": "ring closure, isolated yield", "setting": "from C=CCCCOCC12CCC(CC1)N2C(=O)[C@H]1C[C@@]2(COCCCC=C)CC[C@@H]1N2C(=O)OC(C)(C)C, 18-membered ring, 8.0 h", "result": 73, "unit": "%"}]}
{"smiles": "CC(C)(C)OC(=O)N1[C@H]2CC[C@@]13COCCCCCC=CCCCCOCC14CCC(CC1)N4C(=O)[C@H]2C3", "note": "[4 -> 9 (C11)]", "values": [{"measurement": "ring closure, isolated yield", "setting": "from C=CCCCCCOC[C@@]12CC[C@@H]([C@@H](C(=O)N3C4CCC3(COCCCCC=C)CC4)C1)N2C(=O)OC(C)(C)C, 21-membered ring, 2.0 h", "result": 87, "unit": "%"}]}
{"smiles": "Cc1ccc(S(=O)(=O)N2[C@H]3CC[C@@]24COCCCCC=CCCCCOCC25CCC(CC2)N5C(=O)[C@H]3C4)cc1", "note": "[36 -> Ts-8 (C10, N-Ts)]", "values": [{"measurement": "ring closure, isolated yield", "setting": "from C=CCCCCOCC12CCC(CC1)N2C(=O)[C@H]1C[C@@]2(COCCCCC=C)CC[C@@H]1N2S(=O)(=O)c1ccc(C)cc1, 20-membered ring, 1.0 h", "result": 91, "unit": "%"}]}
{"smiles": "CC(C)(C)OC(=O)N1[C@H]2CC[C@@]13COCCCCC=CCCCOCC14CCC(CC1)N4C(=O)[C@H]2C3", "note": "[2 -> 7 (C9)]", "values": [{"measurement": "ring closure, isolated yield", "setting": "from C=CCCCCOC[C@@]12CC[C@@H]([C@@H](C(=O)N3C4CCC3(COCCCC=C)CC4)C1)N2C(=O)OC(C)(C)C, 19-membered ring, 4.0 h", "result": 80, "unit": "%"}]}
